Measurements taken from patent US12208088B2 (Genentech, Inc., priority 2018, dated 2025).

Target: HPK1 (Homo sapiens (Human), UniProt Q92918)
Assay: HPK1 Lantha binding assay ("Lanth")
Details: binding assays; Morrison Ki fit
In short: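 Ki values are from Morrison-equation fitting of 665/615 nm TR-FRET signals, taking enzyme level, tracer level and tracer Kd into account. The assay mix held HPK1 (2 nM), Eu-anti-GST antibody (2 nM) and Tracer222 (15 nM). Incubations were two 1 h steps at 23 °C, on 5-fold serial compound dilutions.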

Chain of HPK1 (Q92918 1-346 limits assumed): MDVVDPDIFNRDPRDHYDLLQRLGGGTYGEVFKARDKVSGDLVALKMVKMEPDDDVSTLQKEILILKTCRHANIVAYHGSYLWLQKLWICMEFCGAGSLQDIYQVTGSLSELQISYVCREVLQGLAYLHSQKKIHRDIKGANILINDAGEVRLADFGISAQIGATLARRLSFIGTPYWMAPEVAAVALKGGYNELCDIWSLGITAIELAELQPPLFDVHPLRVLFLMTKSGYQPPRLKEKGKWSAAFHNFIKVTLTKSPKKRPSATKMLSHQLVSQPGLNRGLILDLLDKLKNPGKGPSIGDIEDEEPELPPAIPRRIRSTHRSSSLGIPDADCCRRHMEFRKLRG

Ki [nM]	SMILES
6.6	CN(C)C(=O)c1c(N)ccc(-c2cnc3c(c2Cl)C2(C=C(c4cccnc4)CC2)CN3)c1F (centres unmarked) [Compound 112, 6-Amino-3-(4′-chloro-3-(pyridin-3-yl)-1′,2′-dihydrospiro[cyclopentane-1,3′-pyrrolo[2,3-b]pyridin]-2-en-5′-yl)-2-fluoro-N,N-dimethylbenzamide]
39	COc1c(-c2ccc(N)c(C(=O)N(C)C)c2F)cnc2c1[C@]1(CC[C@@H](O)CC1)CN2 [Compound 113a, 6-Amino-2-fluoro-3-((1r,4r)-4-hydroxy-4′-methoxy-1′,2′-dihydrospiro[cyclohexane-1,3′-pyrrolo[2,3-b]pyridin]-5′-yl)-N,N-dimethylbenzamide]
15.1	COc1c(-c2ccc(N)c(C(=O)N(C)C)c2F)cnc2c1[C@]1(CC[C@H](O)CC1)CN2 [Compound 113b, 6-Amino-2-fluoro-3-((1s,4s)-4-hydroxy-4′-methoxy-1′,2′-dihydrospiro[cyclohexane-1,3′-pyrrolo[2,3-b]pyridin]-5′-yl)-N,N-dimethylbenzamide]
304	CN(C)C(=O)c1c(N)ccc(-c2cnc3c(c2Cl)[C@]2(CCNC(=O)C2)CN3)c1F [Compound 122a, (R)-6-Amino-3-(4′-chloro-2-oxo-1′,2′-dihydrospiro[piperidine-4,3′-pyrrolo[2,3-b]pyridin]-5′-yl)-2-fluoro-N,N-dimethylbenzamide]
26	CN(C)C(=O)c1c(N)ccc(-c2cnc3c(c2Cl)[C@@]2(CCNC(=O)C2)CN3)c1F [Compound 122b, (S)-6-Amino-3-(4′-chloro-2-oxo-1′,2′-dihydrospiro[piperidine-4,3′-pyrrolo[2,3-b]pyridin]-5′-yl)-2-fluoro-N,N-dimethylbenzamide]
4	CN(C)C(=O)c1c(N)ccc(-c2cnc3c(c2Cl)C2(CCC(CC#N)C2)CN3)c1F (centres unmarked) [Compound 130, 6-Amino-3-(4′-chloro-3-(cyanomethyl)-1′,2′-dihydrospiro[cyclopentane-1,3′-pyrrolo[2,3-b]pyridin]-5′-yl)-2-fluoro-N,N-dimethylbenzamide]
15.9	CN(Cc1cnn(C)c1)C(=O)c1cccc(-c2cnc3c(c2)C2(CC2)CN3)c1F [Compound 136, 3-(1′,2′-dihydrospiro[cyclopropane-1,3′-pyrrolo[2,3-b]pyridin]-5′-yl)-2-fluoro-N-methyl-N-((1-methyl-1H-pyrazol-4-yl)methyl)benzamide]
34.1	CCN(C(=O)c1cccc(-c2cnc3c(c2)C2(CC2)CN3)c1F)C1CCC1 [Compound 137, N-cyclobutyl-3-(1′,2′-dihydrospiro[cyclopropane-1,3′-pyrrolo[2,3-b]pyridin]-5′-yl)-N-ethyl-2-fluorobenzamide]
38.6	CN(CCC#N)C(=O)c1cccc(-c2cnc3c(c2)C2(CC2)CN3)c1F [Compound 138, N-(2-cyanoethyl)-3-(1,2′-dihydrospiro[cyclopropane-1,3′-pyrrolo[2,3-b]pyridin]-5′-yl)-2-fluoro-N-methylbenzamide]
120	CC(C)C1CN(C(=O)c2cccc(-c3cnc4c(c3)C3(CC3)CN4)c2F)C1 [Compound 139, (3-(1′,2′-dihydrospiro[cyclopropane-1,3′-pyrrolo[2,3-b]pyridin]-5′-yl)-2-fluorophenyl)(3-isopropylazetidin-1-yl)methanone]
126	CN(C(=O)c1cccc(-c2cnc3c(c2)C2(CC2)CN3)c1F)c1cnn(C)c1 [Compound 141, 3-(1′,2′-dihydrospiro[cyclopropane-1,3′-pyrrolo[2,3-b]pyridin]-5′-yl)-2-fluoro-N-methyl-N-(1-methyl-1H-pyrazol-4-yl)benzamide]
116	CC1CN(C(=O)c2cccc(-c3cnc4c(c3)C3(CC3)CN4)c2F)C1 [Compound 142, (3-(1′,2′-dihydrospiro[cyclopropane-1,3′-pyrrolo[2,3-b]pyridin]-5′-yl)-2-fluorophenyl)(3-methylazetidin-1-yl)methanone]
39.6	CN(C)C(=O)c1c(N)ccc(-c2cnc3c(c2Cl)[C@]2(CC[C@@H](O)CC2)CN3)c1F [Compound 144a, 6-Amino-3-((1r,4r)-4′-chloro-4-hydroxy-1′,2′-dihydrospiro[cyclohexane-1,3′-pyrrolo[2,3-b]pyridin]-5′-yl)-2-fluoro-N,N-dimethylbenzamide]

More lines, now with the values behind:

SMILES	Ki [nM]
CN(C)C(=O)c1c(N)ccc(-c2cnc3c(c2Cl)[C@]2(CC[C@@H](n4cncn4)C2)CN3)c1F [Compound 85c, 6-Amino-3-((1R,3R)-4′-chloro-3-(1H-1,2,4-triazol-1-yl)-1′,2′-dihydrospiro[cyclopentane-1,3′-pyrrolo[2,3-b]pyridin]-5′-yl)-2-fluoro-N,N-dimethylbenzamide]	149
C[C@@H]1C[C@@]12CNc1ncc(-c3ccc(N)c(C(=O)N(C)C)c3F)cc12 [Compound 86c, 6-Amino-2-fluoro-N,N-dimethyl-3-((1R,2R)-2-methyl-1′,2′-dihydrospiro[cyclopropane-1,3′-pyrrolo[2,3-b]pyridin]-5′-yl)benzamide]	3.25
CN(C)C(=O)c1c(N)ccc(-c2cnc3c(c2)[C@]2(CN3)C[C@@](O)(C(F)(F)F)C2)c1F [Compound 87a]	358
CN(C)C(=O)c1c(N)ccc(-c2cnc3c(c2)[C@]2(CN3)C[C@@H](n3cncn3)C2)c1F [Compound 88a]	126
CN(C)C(=O)c1c(N)ccc(-c2cnc3c(c2Cl)[C@]2(CC[C@@H](n4nccn4)C2)CN3)c1F [Compound 89c, 6-Amino-3-((1R,3R)-4′-chloro-3-(2H-1,2,3-triazol-2-yl)-1′,2′-dihydrospiro[cyclopentane-1,3′-pyrrolo[2,3-b]pyridin]-5′-yl)-2-fluoro-N,N-dimethylbenzamide]	23.1
CN(C)C(=O)c1c(N)ccc(-c2cnc3c(c2Cl)[C@]2(CC[C@H](n4ccnn4)C2)CN3)c1F [Compound 90a]	51.8
CC(=O)N1CC2(CNc3ncc(-c4ccc(N)c(C(=O)N(C)C)c4F)cc32)C1 [Compound 93, 3-(1-Acetyl-1′,2′-dihydrospiro[azetidine-3,3′-pyrrolo[2,3-b]pyridin]-5′-yl)-6-amino-2-fluoro-N,N-dimethylbenzamide]	916
CN(C)C(=O)c1c(N)ccc(-c2cnc3c(c2)C2(CN3)CC(=CC#N)C2)c1F (centres unmarked) [Compound 94a, (s,E)-6-Amino-3-(3-(cyanomethylene)-1′,2′-dihydrospiro[cyclobutane-1,3′-pyrrolo[2,3-b]pyridin]-5′-yl)-2-fluoro-N,N-dimethylbenzamide]	73.6
CN(C)C(=O)c1c(N)ccc(-c2cnc3c(c2)[C@]2(CN3)C[C@@H](CC#N)C2)c1F [Compound 95a, 6-Amino-3-((1r,3r)-3-(cyanomethyl)-1′,2′-dihydrospiro[cyclobutane-1,3′-pyrrolo[2,3-b]pyridin]-5′-yl)-2-fluoro-N,N-dimethylbenzamide]	120
CN(C)C(=O)c1c(N)ccc(-c2cnc3c(c2)[C@]2(CN3)C[C@@H](C#N)C2)c1F [Compound 96a]	124
CN(C)C(=O)c1c(N)ccc(-c2cnc3c(c2)[C@]2(CN3)C[C@@H](C(N)=O)C2)c1F [Compound 97a]	50.7
CN(C)C(=O)c1c(N)ccc(-c2cnc3c(c2)C2(CN3)CC(=CC(N)=O)C2)c1F (centres unmarked) [Compound 101, 6-Amino-3-(3-(2-amino-2-oxoethylidene)-1′,2′-dihydrospiro[cyclobutane-1,3′-pyrrolo[2,3-b]pyridin]-5′-yl)-2-fluoro-N,N-dimethylbenzamide]	55.8
CN(C)C(=O)c1c(N)ccc(-c2cnc3c(c2)[C@]2(CN3)C[C@H](CC(N)=O)C2)c1F [Compound 102a, 6-Amino-3-((1r,3r)-3-(2-amino-2-oxoethyl)-1′,2′-dihydrospiro[cyclobutane-1,3′-pyrrolo[2,3-b]pyridin]-5′-yl)-2-fluoro-N,N-dimethylbenzamide]	67
CN(C)C(=O)c1c(N)ccc(-c2cnc3c(c2Cl)C2(CCC(=CS(C)(=O)=O)C2)CN3)c1F (centres unmarked) [Compound 103, 6-Amino-3-(4′-chloro-3-((methylsulfonyl)methylene)-1′,2′-dihydrospiro[cyclopentane-1,3′-pyrrolo[2,3-b]pyridin]-5′-yl)-2-fluoro-N,N-dimethylbenzamide]	24.1
CN(C)C(=O)c1c(N)ccc(-c2cnc3c(c2Cl)C2(CCC(=CC#N)C2)CN3)c1F (centres unmarked) [Compound 104, 6-Amino-3-(4′-chloro-3-(cyanomethylene)-1′,2′-dihydrospiro[cyclopentane-1,3′-pyrrolo[2,3-b]pyridin]-5′-yl)-2-fluoro-N,N-dimethylbenzamide]	13.1
CN(C)C(=O)c1c(N)ccc(-c2cnc3c(c2Cl)[C@]2(CC[C@](O)(CC#N)C2)CN3)c1F [Compound 109a, 6-Amino-3-((1R,3R)-4′-chloro-3-(cyanomethyl)-3-hydroxy-1′,2′-dihydrospiro[cyclopentane-1,3′-pyrrolo[2,3-b]pyridin]-5′-yl)-2-fluoro-N,N-dimethylbenzamide]	25.3
CN(C)C(=O)c1c(N)ccc(-c2cnc3c(c2Cl)C2(CCC(=CC(N)=O)C2)CN3)c1F (centres unmarked) [Compound 110, 6-Amino-3-(3-(2-amino-2-oxoethylidene)-4′-chloro-1′,2′-dihydrospiro[cyclopentane-1,3′-pyrrolo[2,3-b]pyridin]-5′-yl)-2-fluoro-N,N-dimethylbenzamide]	4.5
CN(C)C(=O)c1c(N)ccc(-c2cnc3c(c2)[C@]2(CC[C@H](O)CC2)CN3)c1F [Compound 111a, 6-Amino-2-fluoro-3-((1s,4s)-4-hydroxy-1′,2′-dihydrospiro[cyclohexane-1,3′-pyrrolo[2,3-b]pyridin]-5′-yl)-N,N-dimethylbenzamide]	48.3
CN(C)C(=O)c1c(N)ccc(-c2cnc3c(c2)[C@]2(CC[C@@H](O)CC2)CN3)c1F [Compound 111b, 6-Amino-2-fluoro-3-((1r,4r)-4-hydroxy-1′,2′-dihydrospiro[cyclohexane-1,3′-pyrrolo[2,3-b]pyridin]-5′-yl)-N,N-dimethylbenzamide]	172
